Two compounds from US11370773B1, “Inhibiting human integrin (alpha-4) (beta-7)” (Morphic Therapeutic, Inc., priority 2019, dated 2022) can be followed below.

Structures are written as SMILES.

In one test the target is T1, integrin α4β7 (Homo sapiens, UniProt P13612+P26010).
T1 sequence (P13612 34-977 limits assumed): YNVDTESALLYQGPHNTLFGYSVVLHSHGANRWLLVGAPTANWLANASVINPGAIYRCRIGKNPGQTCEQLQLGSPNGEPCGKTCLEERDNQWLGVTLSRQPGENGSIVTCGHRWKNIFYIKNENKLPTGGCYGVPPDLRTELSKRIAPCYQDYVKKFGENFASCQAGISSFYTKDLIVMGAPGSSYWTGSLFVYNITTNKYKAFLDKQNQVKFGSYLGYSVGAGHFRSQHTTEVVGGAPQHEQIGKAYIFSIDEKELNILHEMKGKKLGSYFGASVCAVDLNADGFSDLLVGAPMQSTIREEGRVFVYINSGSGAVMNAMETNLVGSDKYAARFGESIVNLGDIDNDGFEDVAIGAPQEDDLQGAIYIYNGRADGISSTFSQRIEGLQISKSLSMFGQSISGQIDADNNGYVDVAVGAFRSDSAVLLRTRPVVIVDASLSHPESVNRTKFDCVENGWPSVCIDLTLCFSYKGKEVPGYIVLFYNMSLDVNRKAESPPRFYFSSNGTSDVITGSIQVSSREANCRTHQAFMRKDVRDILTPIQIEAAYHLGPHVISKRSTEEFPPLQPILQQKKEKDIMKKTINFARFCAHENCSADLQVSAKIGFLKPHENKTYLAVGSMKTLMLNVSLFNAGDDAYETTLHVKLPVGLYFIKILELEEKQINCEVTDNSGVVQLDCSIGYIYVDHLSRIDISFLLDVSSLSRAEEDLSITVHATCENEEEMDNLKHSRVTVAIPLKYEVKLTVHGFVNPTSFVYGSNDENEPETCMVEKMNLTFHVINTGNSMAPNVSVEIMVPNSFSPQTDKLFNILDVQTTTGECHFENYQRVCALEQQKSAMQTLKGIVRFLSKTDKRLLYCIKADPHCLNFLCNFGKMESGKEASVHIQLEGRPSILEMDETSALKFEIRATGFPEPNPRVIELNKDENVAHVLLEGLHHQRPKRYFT
T1 sequence (P26010 20-723 limits assumed): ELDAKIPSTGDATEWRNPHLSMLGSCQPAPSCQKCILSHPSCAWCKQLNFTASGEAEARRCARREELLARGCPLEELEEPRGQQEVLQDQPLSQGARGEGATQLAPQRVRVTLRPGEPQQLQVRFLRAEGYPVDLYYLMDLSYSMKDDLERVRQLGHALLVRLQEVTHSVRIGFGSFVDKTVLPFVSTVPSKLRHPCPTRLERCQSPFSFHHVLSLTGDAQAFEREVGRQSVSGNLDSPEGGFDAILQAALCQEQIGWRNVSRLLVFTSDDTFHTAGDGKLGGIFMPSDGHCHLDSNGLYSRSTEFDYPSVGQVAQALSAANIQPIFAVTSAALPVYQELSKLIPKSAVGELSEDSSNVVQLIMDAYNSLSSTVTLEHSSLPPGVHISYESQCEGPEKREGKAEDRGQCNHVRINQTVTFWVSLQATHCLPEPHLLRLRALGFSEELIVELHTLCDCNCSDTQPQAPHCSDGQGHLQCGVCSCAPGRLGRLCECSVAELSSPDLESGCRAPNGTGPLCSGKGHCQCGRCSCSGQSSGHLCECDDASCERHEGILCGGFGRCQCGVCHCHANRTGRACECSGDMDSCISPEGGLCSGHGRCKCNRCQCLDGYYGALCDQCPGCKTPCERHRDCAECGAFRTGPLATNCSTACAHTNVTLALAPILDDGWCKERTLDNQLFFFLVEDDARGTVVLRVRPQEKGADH
Briefly: Fluorescence Polarization (FP) assay for α4β7 binding, competition with fluorescein-labeled peptide. The note with it: 6.5 nM integrin α4β7, 3 nM fluorescein-labeled peptide, 2 mM MnCl2; read-out: FP Assay (Example 5) IC50. The protocol: (§1) Three in vitro assays were used to examine the α4β7 mechanistic process used by cells: 1) ligand:receptor affinity, 2) the avidity of those interactions on a cell's surface, and 3) how those interactions fare under an imposing force. In Example 5, a Fluorescence Polarization (FP) assay is used to measure compound activity through binding competition with the fluorescein-labeled peptide. In Example 6, the potency of compounds against α4β7 is measured in the cell-based ligand binding assay (LBA), using RPMI 8866 cells incubated with the compound samples in competition with soluble MAdCAM-1 ligand. In Example 7, activity of compounds is evaluated in a cell adhesion assay that mechanistically tests what occurs in vivo when trafficking cells utilize α4β7 to adhere to MAdCAM-1 expressing HEVs of the gut during the extravasation process. In the cell adhesion assay of Example 7, a MAdCAM1-(Fc) is coated on plastic, and α4β7 expressing cells (RPMI-8866) are allowed to adhere to the coated surface in the presence of the test compounds. Next, the force of washing with buffer is applied to cells thereby testing the strength of that adhesion. Unattached cells are removed and the remaining adherent cells are quantified.
Fluorescence Polarization (FP) assays were used to measure compound activity through binding competition with the fluorescein-labeled peptide […]{Lys(FITC)}. In the assay, 6.5 nM of integrin α4β7 was incubated with the test compound in 2 mM manganese chloride, 0.1 mM calcium chloride, 20 mM HEPES buffer at pH 7.3, 150 mM sodium chloride, 0.01% Triton X-100, 2% DMSO, and 3 nM of the fluorescein-labeled peptide. Running the assays in 384-well plates, the integrin protein was pre-incubated with the test compounds for 15 minutes at 22° C. before the fluorescein-labeled peptide was added. After the fluorescein-labeled peptide was added, the assay was incubated at 22° C. for 1 hour and fluorescence polarization was measured. IC50 values were determined by non-linear regression, four-parameter curve fitting.

In another test the target is T2, α4β7 (Homo sapiens, UniProt P13612+P26010).
T2 construct: α4β7 expressing cells (RPMI-8866); endogenous in cells; host or cells: RPMI 8866
T2 sequence (P13612 34-1032): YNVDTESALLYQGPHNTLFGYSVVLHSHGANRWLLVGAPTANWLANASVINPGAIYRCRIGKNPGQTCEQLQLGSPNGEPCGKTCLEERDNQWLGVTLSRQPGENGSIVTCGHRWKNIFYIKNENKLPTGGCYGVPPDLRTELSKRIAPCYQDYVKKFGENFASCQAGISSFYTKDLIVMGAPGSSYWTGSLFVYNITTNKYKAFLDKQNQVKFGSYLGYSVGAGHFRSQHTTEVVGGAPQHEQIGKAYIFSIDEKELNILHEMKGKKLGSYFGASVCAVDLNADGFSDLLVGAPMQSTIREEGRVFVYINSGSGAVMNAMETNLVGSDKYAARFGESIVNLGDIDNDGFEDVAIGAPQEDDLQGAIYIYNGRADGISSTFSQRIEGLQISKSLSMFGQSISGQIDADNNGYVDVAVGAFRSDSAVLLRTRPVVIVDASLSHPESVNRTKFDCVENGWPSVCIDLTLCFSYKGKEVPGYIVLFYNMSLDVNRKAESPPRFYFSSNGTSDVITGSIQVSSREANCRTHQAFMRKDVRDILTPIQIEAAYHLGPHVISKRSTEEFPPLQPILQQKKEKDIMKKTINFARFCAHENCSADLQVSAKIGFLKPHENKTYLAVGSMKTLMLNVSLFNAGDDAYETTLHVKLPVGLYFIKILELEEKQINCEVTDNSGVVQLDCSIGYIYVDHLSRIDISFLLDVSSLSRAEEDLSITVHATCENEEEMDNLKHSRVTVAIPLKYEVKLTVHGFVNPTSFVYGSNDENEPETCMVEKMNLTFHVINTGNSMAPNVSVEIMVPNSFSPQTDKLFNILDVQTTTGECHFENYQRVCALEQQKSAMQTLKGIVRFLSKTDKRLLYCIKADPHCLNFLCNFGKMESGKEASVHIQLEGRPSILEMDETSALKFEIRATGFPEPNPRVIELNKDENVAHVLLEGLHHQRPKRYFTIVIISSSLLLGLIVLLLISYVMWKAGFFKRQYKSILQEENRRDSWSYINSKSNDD
T2 sequence (P26010 20-798): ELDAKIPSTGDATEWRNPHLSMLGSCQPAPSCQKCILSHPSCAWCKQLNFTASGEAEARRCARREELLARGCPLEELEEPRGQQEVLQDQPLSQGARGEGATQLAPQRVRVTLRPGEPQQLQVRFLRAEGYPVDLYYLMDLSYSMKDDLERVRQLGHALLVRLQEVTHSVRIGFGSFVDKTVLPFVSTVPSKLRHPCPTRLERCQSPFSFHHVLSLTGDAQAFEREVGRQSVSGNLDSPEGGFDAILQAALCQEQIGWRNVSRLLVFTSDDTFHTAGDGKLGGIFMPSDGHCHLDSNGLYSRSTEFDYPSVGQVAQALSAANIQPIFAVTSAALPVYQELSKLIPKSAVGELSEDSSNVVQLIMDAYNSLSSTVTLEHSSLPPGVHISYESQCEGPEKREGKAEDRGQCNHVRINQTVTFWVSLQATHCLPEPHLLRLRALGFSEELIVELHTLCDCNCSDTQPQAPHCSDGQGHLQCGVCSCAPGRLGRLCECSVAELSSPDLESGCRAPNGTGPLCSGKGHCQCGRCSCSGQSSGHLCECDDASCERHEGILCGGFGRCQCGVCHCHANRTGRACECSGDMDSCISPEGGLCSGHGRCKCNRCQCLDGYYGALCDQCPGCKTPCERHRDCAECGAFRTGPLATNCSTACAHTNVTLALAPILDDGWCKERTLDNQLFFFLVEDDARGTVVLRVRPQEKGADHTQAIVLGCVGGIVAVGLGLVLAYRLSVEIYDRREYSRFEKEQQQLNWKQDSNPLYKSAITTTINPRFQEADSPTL
Briefly: Cell adhesion assay, RPMI8866 cells adhering to MAdCAM coated plates. It is filed as cell-based. The note with it: RPMI8866 cells on recombinant human MAdCAM coated plates; read-out: CA Assay (Example 7) IC50. How it is done:
as §1
Example 7 describes a cell adhesion assay.
To each well of a 96 well plate, 100 ug of recombinant human MAdCAM in 100 ul PBS is added and incubated overnight at 4° C. After incubation MAdCAM is removed by aspiration and 200 ul of PBS+1% BSA is added to block the plate for 2 hours at 37° C. and 5% CO2. During this incubation dilution curves of compound are made in 100% DMSO in 96 well V bottom plates. 1.75 ul of diluted compounds are then transferred to a new 96 well U bottom plate containing 20 ul of assay media (phosphate free DMEM+25 mM HEPES+1% BSA). To this an additional 155 ul of assay media is added with mixing by pipetting up and down. This mixture is allowed to incubate for 15 minutes at 37° C. and 5% CO2. After incubation 175 ul of assay media containing 2e6/mL RPMI8866 cells is added to compound containing wells without mixing and plate is allowed to incubate for another 15 minutes at 37° C. and 5% CO2. During this incubation MAdCAM coated plates are removed from incubator and washed twice with 200 ul PBS+0.1% BSA. […] This plate is then incubated at 37° C. and 5% CO2 for 1 hour. After incubation plates are washed twice with 200 ul and once with 50 ul of phenol free RPMI+1% BSA. A final 50 ul of phenol free RPMI+1% BSA is added to wells after last wash. Next 50 ul of Promega cell titer glow is added to the wells. Plate is incubated on shaker for 2 minutes at 200 RPM followed by another 8 minutes off shaker before having the luminescence read on a Biotek Citation 5 plate reader. Raw data is converted to % inhibition compared to bottom of curve and analyzed using a 4-parameter non linear curve in Prism to determine IC50 and IC90.

Usually IC50 stands for the concentration that gives 50% inhibition.

As for `Cc1cc(C)c(-c2cc(C)c(F)c([C@H](CC(=O)O)NC(=O)C(CC(C)C)n3cc(CCN(C)C)c(C(F)(F)F)cc3=O)c2)c(C)c1` (single isomer, unassigned) [AC-P2], the IC50 on integrin α4β7 is no more than 10 nM.

As for `Cc1cc(-c2c(C)cccc2C)cc([C@H](CC(=O)O)NC(=O)[C@H](CC(C)C)n2cc(CCN3CC[C@@H](F)C3)cc(F)c2=O)c1F` (single isomer, unassigned) [AU-P2], at α4β7, the IC50 is less than 5 nM.
